Target: T1, Recombinant (1-346) HPK1 (h) (Homo sapiens, UniProt Q92918)
T1 construct: Recombinant (1-346) HPK1 (h) is incubated with 8 mM MOPS pH 7.0
T1 sequence (Q92918 1-346): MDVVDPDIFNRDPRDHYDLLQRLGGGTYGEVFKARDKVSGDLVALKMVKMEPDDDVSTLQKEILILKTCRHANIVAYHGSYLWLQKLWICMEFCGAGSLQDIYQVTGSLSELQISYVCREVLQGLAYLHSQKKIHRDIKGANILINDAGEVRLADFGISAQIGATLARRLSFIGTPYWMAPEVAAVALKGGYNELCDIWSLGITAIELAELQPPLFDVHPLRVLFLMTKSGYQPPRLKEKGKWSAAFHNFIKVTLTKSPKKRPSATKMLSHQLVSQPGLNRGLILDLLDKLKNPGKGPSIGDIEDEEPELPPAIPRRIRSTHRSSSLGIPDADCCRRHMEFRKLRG
Experiment: HPK1 human STE kinase enzymatic radiometric assay
Format: biochemical
Settings: read-out: HPK1 IC50 nM Range
Experimental: (a) HPK1 Human STE Kinase Enzymatic Radiometric Assay
A stock solution of 10 mM of test compound is prepared in DMSO. The compound plate was prepared by 3-fold and 9-point serial dilutions. Recombinant (1-346) HPK1 (h) is incubated with 8 mM MOPS pH 7.0, 0.2 mM EDTA, 0.33 mg/mL myelin basic protein, 10 mM MgAcetate and [gamma-33P]-ATP (specific activity and concentration as required). The reaction is initiated by the addition of the Mg/ATP mix. After incubation for 40 minutes at RT, the reaction is stopped by the addition of phosphoric acid to a concentration of 0.5%, 10 μL of the reaction is then spotted onto a P30 filtermat and washed four times for 4 minutes in 0.425% phosphoric acid and once in methanol prior to drying and scintillation counting. For more details of kinase assay protocols, see: Gao, Y. et. al.; Biochem J.451 (2): 313-328, 2013.

| SMILES | IC50 [nM] |
| --- | --- |
| Nc1nc(F)c(-c2ccc(C3CCOCC3)c(CN3CCC3)c2)nc1-c1ccc2c(=O)[nH]cc(F)c2c1 [Example I-204, 6-(3-amino-6-(3-(azetidin-1-ylmethyl)-4-(tetrahydro-2H-pyran-4-yl)phenyl)-5-fluoropyrazin-2-yl)-4-fluoroisoquinolin-1(2H)-one] | 0.1 to 10 |
| Nc1nc(F)c(-c2ccc(N3CCOCC3)c(CN3CCCC3)c2)nc1-c1ccc2c(=O)[nH]cc(F)c2c1 [Example I-200, 6-(3-amino-5-fluoro-6-(4-morpholino-3-(pyrrolidin-1-ylmethyl)phenyl)pyrazin-2-yl)-4-fluoroisoquinolin-1(2H)-one] | 0.1 to 10 |
| Cc1[nH]c(=O)c2c(F)cc(-c3nc(-c4ccc(N5CCOCC5)c(CN(C)C)c4)c(F)nc3N)cc2c1Cl [Example I-109, 6-(3-amino-6-(3-((dimethylamino)methyl)-4-morpholinophenyl)-5-fluoropyrazin-2-yl)-4-chloro-8-fluoro-3-methylisoquinolin-1(2H)-one] | 0.1 to 10 |
| CO[C@@H]1CCN(Cc2cc(-c3nc(-c4ccc5c(c4)CCNC5=O)c(N)nc3F)ccc2N2CCOCC2)C1 [Example I-151, (R)-6-(3-amino-5-fluoro-6-(3-((3-methoxypyrrolidin-1-yl)methyl)-4-morpholinophenyl)pyrazin-2-yl)-3,4-dihydroisoquinolin-1(2H)-one] | 0.1 to 10 |
| Nc1nc(F)c(-c2ccc(OC3CCOCC3)c(CN3CCC3)c2)nc1-c1cc2c(cc1F)C(=O)NCC2 [Example I-209, 6-(3-amino-6-(3-(azetidin-1-ylmethyl)-4-((tetrahydro-2H-pyran-4-yl)oxy)phenyl)-5-fluoropyrazin-2-yl)-7-fluoro-3,4-dihydroisoquinolin-1(2H)-one] | 11 to 100 |
| CN(C)Cc1cc(-c2nc(-c3ccc4c(=O)[nH]cc(F)c4c3)c(N)nc2F)c(F)c(F)c1N1CCOCC1 [Example I-263, 6-(3-amino-6-(5-((dimethylamino)methyl)-2,3-difluoro-4-morpholinophenyl)-5-fluoropyrazin-2-yl)-4-fluoroisoquinolin-1(2H)-one] | 11 to 100 |
| Nc1nc(F)c(-c2ccc([C@]34C[C@H]3CN(C3CCC3)C4)cc2)nc1-c1ccc2c(=O)[nH]cc(F)c2c1 [Example I-99, 6-(3-amino-6-(4-((1S,5R)-3-cyclobutyl-3-azabicyclo[3.1.0]hexan-1-yl)phenyl)-5-fluoropyrazin-2-yl)-4-fluoroisoquinolin-1(2H)-one] | 0.1 to 10 |
| CCN(C)Cc1cc(-c2nc(-c3ccc4c(=O)[nH]cc(F)c4c3)c(N)nc2F)ccc1C1=CCOCC1 [Example I-282, 6-(3-amino-6-(4-(3,6-dihydro-2H-pyran-4-yl)-3-((ethyl(methyl)amino)methyl)phenyl)-5-fluoropyrazin-2-yl)-4-fluoroisoquinolin-1(2H)-one] | 11 to 100 |

The remaining lines, values ahead:

| IC50 [nM] | SMILES |
| --- | --- |
| 0.1 to 10 | COCCN(C)Cc1cc(-c2nc(-c3ccc4c(c3)CCNC4=O)c(N)nc2F)ccc1C1CCOCC1 [Example I-174, 6-(3-amino-5-fluoro-6-(3-(((2-methoxyethyl)(methyl)amino)methyl)-4-(tetrahydro-2H-pyran-4-yl)phenyl)pyrazin-2-yl)-3,4-dihydroisoquinolin-1(2H)-one] |
| 0.1 to 10 | C[C@@H]1CN(C)CCN1c1ccc(-c2nc(-c3ccc4c(c3)CCNC4=O)c(N)nc2F)cc1 [Example I-52, (R)-6-(3-amino-6-(4-(2,4-dimethylpiperazin-1-yl)phenyl)-5-fluoropyrazin-2-yl)-3,4-dihydroisoquinolin-1(2H)-one] |
| 0.1 to 10 | Cc1[nH]c(=O)c2c(F)cc(-c3nc(-c4ccc(N5CCN(CC6CC6)CC5)cc4)c(F)nc3N)cc2c1F [Example I-115, 6-(3-amino-6-(4-(4-(cyclopropylmethyl)piperazin-1-yl)phenyl)-5-fluoropyrazin-2-yl)-4,8-difluoro-3-methylisoquinolin-1(2H)-one] |
| 0.1 to 10 | CCN1CCN(c2ccc(-c3nc(-c4ccc5c(c4)CCNC5=O)c(N)nc3F)cc2)CC1 [Example I-55, 6-(3-amino-6-(4-(4-ethylpiperazin-1-yl)phenyl)-5-fluoropyrazin-2-yl)-3,4-dihydroisoquinolin-1(2H)-one] |

From patent publication US20240425479A1, “HALO-SUBSTITUTED AMINO AZA-HETEROARYL COMPOUNDS AS INHIBITORS OF THE HAEMATOPOIETIC PROGENITOR KINASE 1 (HPK1)” (priority 2021, published 2024)
